Results published in patent publication US7122550B2, “Protein kinase inhibitors” (Cytopia Pty Ltd, priority 2002, dated 2006).

Assays:
Format in all cases: cell-based
Tel-Jak3 = target: T1, Tel-Jak3 (Homo sapiens, UniProt P52333); test: Cellular growth inhibition assay (MTT), Tel-Jak3 transformed BaF3 cell line; conditions: 40 hr incubation, read-out: Jak3: growth inhibitory activity (>50%) in transformed cell line Tel-Jak3
T1 construct: TEL (ETV6, human P41212) N-terminal part encoded by nucleotides 1-487 of TEL; expressed in transfected cells; host or cells: BaF3 (murine) bearing pTET-off, transfected with pTELJAK3 (pTRE2 vector); the other entry of the earlier key: ETV6 (P41212, Transcription factor ETV6)
Text: (§1) The coding region encompassing nucleotides 1–487 of TELwas amplified by PCR using the oligonucleotides 5TEL (5′-GGAGGATCCTGATCTCTCTCGCTGTGAGAC-3′) and 3TEL (5′-AGGC GTCGACTTCTTCTTCATGGTTCTG-3′) and U937 mRNA as template. A BamHI site was present into the 5TEL Primer, a SalI site was incorporated into the 3TEL primer. The regions encompassing the kinase domains of JAK2 (nucleotides 2994–3914; JAK2F 5′-ACGC GTCGACGGTGCCTTTGAAGACCGGGAT-3′; JAK2R 5′-ATAGTTTAGCGGCCGCTCAGAATGAAGGTCATTT-3′) and JAK3 (nucleotides 2520–3469; JAK3F 5′-GAAGTCGACTATGCCTGCCAAGACCCCACGATCTT-3′; JAK3R 5′-GGATCTAGACTATGAAAAGGACAGGGAGTGGTGTTT-3′) were generated by PCR using Taq DNA Polymerase (Gibco/BRL) and U937 mRNA as template. A SalI site was incorporated into the forward primer of JAK2 and JAK3, a NotI site was incorporated into the JAK2 reverse primer and a Xba I site was added to the reverse primer of JAK3.
(§2) A TEL/Jak2 fusion was generated by digestion of the TELPCR product with BamHI/SalI, digestion of the JAK2 PCR product with SalI/NotI followed by ligation and subcloning into the mammalian expression Vector pTRE 2 (Clontech) digested with BamHI-NotI (pTELJAK2). For JAK3 SalI/NotI cleaved kinase domain PCR product was ligated with BamHI/SalI cleaved TELproduct followed by ligation into BamHI/NotI cleaved pTRE2 (pTELJAK3).
(§3) The growth factor dependent myelomonocytic cell line BaF3 bearing the pTET-off plasmid (Clontech) was transfected with either pTELJAK2 or pTELJAK3 and the cells selected for factor independent growth. BaF 3 wild type cells were cultured in DMEM 10% FCS, 10% WEHI 3B conditioned medium. BaF3 TELJAK cells were cultured in DMEM 10% Tet-System Approved FBS (without WEHI 3B conditioned medium).
(§4) Cell suspensions were prepared by harvesting cells from culture. (Cells used in this test should be in later log phase growth and high viability.) Cells were diluted in correct growth medium to 1.1×final concentration (from 50000 cell/mL to 200,000 cell/mL, depending on cell line).
(§5) Compounds to be tested were added (10 μL, 10×final concentration) to a flat bottom 96-well plate. The cellular suspension (90 μL per well) was added, and the plate incubated for 40 hr at 37° C., 5% CO2. MTT (20 μL per well, 5 mg/mL in PBS) was added and the plates were returned to the incubator for a further 6 hours. Lysis buffer (100 μL per well, 10% SDS, 0.01N HCl) was added and the plate stored in the incubator overnight. The plate was then read at 590 nm.

Tel-Jak2 = target: T2, Tel-Jak2 (Homo sapiens, UniProt O60674); test: Cellular growth inhibition assay (MTT), Tel-Jak2 transformed BaF3 cell line; conditions: 40 hr incubation, read-out: Jak2: growth inhibitory activity (>50%) in transformed cell line Tel-Jak2
T2 construct: The regions encompassing the kinase domains of JAK2 (nucleotides 2994–3914); TEL (ETV6, human P41212) N-terminal part encoded by nucleotides 1-487 of TEL; expressed in transfected cells; host or cells: BaF3 (murine) bearing pTET-off, transfected with pTELJAK2 (pTRE2 vector); the other entry of the earlier key: ETV6 (P41212, Transcription factor ETV6)
Text: as §1, §2, §3, §4, §5

DU145 = test: Cellular growth inhibition assay (MTT), DU145 cells; conditions: Homo sapiens, DU-145, 40 hr incubation, read-out: DU145: growth inhibitory activity
Method: as §4, §5

T1 sequence (P52333 with tags, fused parts or gaps): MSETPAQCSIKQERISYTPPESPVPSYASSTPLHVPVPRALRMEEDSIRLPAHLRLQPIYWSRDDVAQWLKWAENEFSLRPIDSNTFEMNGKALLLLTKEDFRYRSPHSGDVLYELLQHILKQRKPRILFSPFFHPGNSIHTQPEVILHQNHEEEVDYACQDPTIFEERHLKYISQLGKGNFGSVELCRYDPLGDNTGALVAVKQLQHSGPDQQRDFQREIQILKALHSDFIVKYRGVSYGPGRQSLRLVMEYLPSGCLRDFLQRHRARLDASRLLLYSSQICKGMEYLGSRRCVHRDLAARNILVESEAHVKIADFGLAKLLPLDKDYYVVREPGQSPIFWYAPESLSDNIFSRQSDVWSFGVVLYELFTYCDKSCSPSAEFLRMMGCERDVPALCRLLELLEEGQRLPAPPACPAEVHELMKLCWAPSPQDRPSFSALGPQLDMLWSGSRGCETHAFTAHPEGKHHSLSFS
T2 sequence (O60674 with tags, fused parts or gaps): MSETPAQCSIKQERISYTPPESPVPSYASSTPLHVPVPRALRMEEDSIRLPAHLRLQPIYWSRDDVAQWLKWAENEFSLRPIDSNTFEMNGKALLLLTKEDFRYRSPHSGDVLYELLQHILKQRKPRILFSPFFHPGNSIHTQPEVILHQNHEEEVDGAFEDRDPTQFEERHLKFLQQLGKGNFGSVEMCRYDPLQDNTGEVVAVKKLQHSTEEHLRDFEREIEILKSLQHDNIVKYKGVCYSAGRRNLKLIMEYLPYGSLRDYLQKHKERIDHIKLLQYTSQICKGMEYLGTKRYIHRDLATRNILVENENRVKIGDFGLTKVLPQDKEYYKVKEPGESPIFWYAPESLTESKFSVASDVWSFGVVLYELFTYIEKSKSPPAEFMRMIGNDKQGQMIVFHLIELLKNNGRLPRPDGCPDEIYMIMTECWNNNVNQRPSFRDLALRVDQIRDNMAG

SMILES	inhibition at 50 µM (Tel-Jak3)	inhibition at 50 µM (Tel-Jak2)	inhibition at 50 µM (DU145)
COc1cc(-c2cncc(NC(C)c3cccc(NC(=O)N4CCN(C)CC4)c3)n2)ccc1O (stereo not shown) [Chemistry 241]	> 50%	> 50%	< 50%
COc1cc(-c2cncc(N(C)Cc3ccccc3)n2)ccc1O [Chemistry 137]	> 50%	> 50%	< 50%
COc1cc(-c2cncc(NC(C)c3ccncc3)n2)ccc1O (stereo not shown) [Chemistry 200]	> 50%	> 50%	< 50%
COc1cc(-c2cncc(NC(C)c3ccc(C(=O)NCC4CC4)cc3)n2)ccc1O (stereo not shown) [Chemistry 354]	> 50%	> 50%	< 50%
COc1cc(-c2cncc(NC(C)c3ccc(C(N)=O)cc3)n2)ccc1O (stereo not shown) [Chemistry 304]	> 50%	> 50%	< 50%
COc1cc(-c2cncc(NC(C)c3ccc(NC(=O)c4ccncc4)cc3)n2)ccc1O (stereo not shown) [Chemistry 279]	> 50%	> 50%	> 50%
C[C@H](Nc1cncc(-c2ccc(NS(=O)(=O)c3ccccc3)cc2)n1)c1ccccc1 [Chemistry 226]	> 50%	> 50%	> 50%
COc1cc(-c2cncc(N(C)[C@@H](C)c3ccccc3)n2)ccc1O [Chemistry 142]	> 50%	> 50%	< 50%
COc1cc(-c2cncc(Nc3cc(F)ccc3C)n2)ccc1O [Chemistry 144]	> 50%	> 50%	< 50%
COc1cc(-c2cncc(Nc3ccc(F)cc3C)n2)ccc1O [Chemistry 156]	> 50%	> 50%	< 50%
COc1cc(-c2cncc(NC(C)c3ccc(NC(=O)CN4CCN(C)CC4)cc3)n2)ccc1O (stereo not shown) [Chemistry 282]	> 50%	> 50%	> 50%
C[C@H](Nc1cncc(-c2ccc(NS(C)(=O)=O)cc2)n1)c1ccccc1 [Chemistry 192]	> 50%	> 50%	> 50%
COc1cc(-c2cncc(NCc3ccco3)n2)ccc1O [Chemistry 141]	> 50%	> 50%	> 50%
COc1cc(-c2cncc(NC(C)c3ccc(C(=O)NCc4cccnc4)cc3)n2)ccc1O (stereo not shown) [Chemistry 372]	> 50%	> 50%	< 50%
COc1cc(-c2cncc(NC(C)c3ccc(C(=O)NCCO)cc3)n2)ccc1O (stereo not shown) [Chemistry 374]	> 50%	> 50%	< 50%
COc1cc(-c2cncc(NC(C)c3ccc(NC(=O)N4CCN(C)CC4)cc3)n2)ccc1O (stereo not shown) [Chemistry 283]	> 50%	> 50%	> 50%
COc1cc(-c2cncc(NC(C)c3ccc(C(=O)O)cc3)n2)ccc1O (stereo not shown) [Chemistry 324]	< 50%	< 50%	< 50%
C[C@H](Nc1cncc(-c2ccc(N)cc2)n1)c1ccccc1 [Chemistry 181]	> 50%	> 50%	< 50%
COc1cc(-c2cncc(NCc3cccnc3)n2)ccc1O [Chemistry 136]	> 50%	> 50%	> 50%
COc1cc(-c2cncc(NC(C)c3cccc(NC(=O)c4cccnc4)c3)n2)ccc1O (stereo not shown) [Chemistry 268]	> 50%	> 50%	> 50%

SMILES	inhibition at 50 µM (Tel-Jak3)	inhibition at 50 µM (Tel-Jak2)	inhibition at 50 µM (DU145)
COc1cc(-c2cncc(NC(C)c3cccc(NC(=O)C4CCCN4)c3)n2)ccc1O (stereo not shown) [Chemistry 267]	> 50%	> 50%	> 50%
COc1cc(-c2cncc(NC(C)c3ccc(NC(=O)C4CCCN4C(=O)OC(C)(C)C)cc3)n2)ccc1O (stereo not shown) [Chemistry 281]	> 50%	> 50%	> 50%
CC[C@H](Nc1cncc(-c2ccc(O)c(OC)c2)n1)c1ccccc1 [Chemistry 119]	> 50%	> 50%	> 50%
COc1cc(-c2cncc(NC(C)c3ccc(-c4ccncc4)cc3)n2)ccc1O (stereo not shown) [Chemistry 266]	> 50%	> 50%	> 50%
COc1cc(-c2cncc(NC(C)c3ccc(NCc4cccnc4)cc3)n2)ccc1O (stereo not shown) [Chemistry 320]	> 50%	> 50%	< 50%
COc1cc(-c2cncc(NC(C)c3ccc(N)cc3)n2)ccc1O (stereo not shown) [Chemistry 319]	> 50%	> 50%	< 50%
CCN(CC)CCOc1ccc(C(C)Nc2cncc(-c3ccc(O)c(OC)c3)n2)cc1 (stereo not shown) [Chemistry 285]	> 50%	> 50%	> 50%
COc1cc(-c2cncc(N[C@@H](C)c3ccccc3)n2)ccc1O [Chemistry 118]	> 50%	> 50%	> 50%
COc1ccc([C@H](C)Nc2cncc(-c3ccc(O)c(OC)c3)n2)cc1 [Chemistry 117]	> 50%	> 50%	< 50%
COc1cc(-c2cncc(N[C@@H](C)c3ccc4ccccc4c3)n2)ccc1O [Chemistry 155]	> 50%	> 50%	< 50%
COc1cc(-c2cncc(N[C@H]3CCCc4ccccc43)n2)ccc1O [Chemistry 87]	< 50%	> 50%	–
COc1cc(-c2cncc(NC(C)c3ccc(-c4ccccc4)cc3)n2)ccc1O (stereo not shown) [Chemistry 185]	> 50%	> 50%	< 50%
COc1cc(-c2cncc(NC(C)c3ccc(NC(=O)c4cccnc4)cc3)n2)ccc1O (stereo not shown) [Chemistry 280]	> 50%	> 50%	< 50%
COc1cc(-c2cncc(NC(C)c3cccnc3)n2)ccc1O (stereo not shown) [Chemistry 187]	> 50%	> 50%	> 50%
C[C@H](Nc1cncc(-c2ccc(O)c(Cl)c2)n1)c1ccccc1 [Chemistry 175]	> 50%	< 50%	< 50%
CNC(=O)c1ccc(C(C)Nc2cncc(-c3ccc(O)c(OC)c3)n2)cc1 (stereo not shown) [Chemistry 370]	> 50%	> 50%	< 50%
COc1cc(-c2cncc(NC(C)c3cccc(NC(=O)c4ccncc4)c3)n2)ccc1O (stereo not shown) [Chemistry 269]	> 50%	> 50%	> 50%
COc1cc(-c2cncc(NC(C)c3ccc(-c4cccnc4)cc3)n2)ccc1O (stereo not shown) [Chemistry 270]	> 50%	> 50%	> 50%
COc1cc(-c2cncc(N[C@H]3CCc4ccccc43)n2)ccc1O [Chemistry 68]	> 50%	> 50%	–
